Assay results from patent publication US8809280B2, “Therapeutic peptides” (Lytix Biopharma AS, priority 2009, dated 2014).
In brackets after ≈: the same amount, converted by molar mass. Like-named read-outs stand apart in the source and are kept apart here.

Assays:
Type in all cases: cell-based
[1] = test system: methicillin resistant Staphylococcus epidermidis (ATCC 27626); assay: microbe, parasite or virus in culture
Procedure, shortened: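 Exponentially grown bacteria (2% peptone water) at 2×10^6 cfu/ml exposed in duplicate to di-TFA salts at 0.5–200 μg/ml. Growth or no growth judged by well turbidity; no-peptide and gentamicin controls included.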

[2] = test system: MRC-5; assay: Toxicity assay MRC-5; conditions: highest concentration tested 500 μg/ml; for IC50: Homo sapiens, MRC5, Example 2
Experimental: Cells for Toxicity Studies Used MRC-5 and human RBC MRC-5 assay: 500 μg/ml

[3] = test system: Escherichia coli (ATTC 25922); assay: microbe, parasite or virus in culture
Procedure, shortened: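 Broth dilution in 2% Bacto Peptone water, inoculum 2×10^6 cfu/ml of exponential-phase bacteria; compounds (di-TFA salts) tested in duplicate at 200 down to 0.5 μg/ml. Growth judged by well turbidity, with no-peptide negative and gentamicin positive controls.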

[4] = test system: A20; assay: cells; conditions: for Anticancer potency (IC50) A20: Example 2; for Anticancer potency (IC50) A20 / IC50: highest concentration tested 500 μg/ml, * low solubility in the test media (Table 2); for IC50: Mus musculus, A20, Example 2, read-out: Anticancer potency (IC50) A20; for Anti-Cancer Selectivity MRC-5/A20: ratio of MRC-5 to A20 values; for Anti-Cancer Selectivity RBC/A20: ratio of RBC EC50 to A20 IC50
Experimental: Cancer Cell Lines A20 or MethA Anticancer assays: 500 μg/ml

[5] = test system: Staphylococcus aureus (ATTC 25923); assay: microbe, parasite or virus in culture
Procedure, shortened: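 Di-TFA salts tested in duplicate at 0.5–200 μg/ml against exponential-phase bacteria at 2×10^6 cfu/ml grown in 2% peptone water. Growth judged by well turbidity, with no-peptide and gentamicin controls.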

[6] = test system: human red blood cells; assay: cells
Procedure, shortened: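 Washed heparinized RBCs, diluted to 10% hematocrit then to 1% v/v final, incubated with compounds in PBS (1–1000 μg/mL) for 1 h at 37 °C with agitation. Hemoglobin release read at 405 nm against PBS (0%) and 0.1% Triton X-100 (100%); value reported is concentration giving 50% hemolysis.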

[7] = test system: methicillin resistant Staphylococcus aureus (ATCC 33591); assay: microbe, parasite or virus in culture
Procedure, shortened: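 Di-TFA salts tested in duplicate at 200 down to 0.5 μg/ml against exponentially grown bacteria at 2×10^6 cfu/ml. Growth judged by well turbidity, with no-peptide and gentamicin controls.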

[8] = test system: Pseudomonas aeruginosa (ATCC 27853); assay: microbe, parasite or virus in culture; conditions: for MIC: read-out: MIC P. aeruginosa
Experimental: Each compound was tested in duplicates at 200, 100, 50, 35, 15, 10, 5, 2.5, 1, 0.5 μg/ml. All tested compounds were di-trifluoroacetic acid salts.

[9] = Example 2, values separated by / are repeat tests
[10] = Staphylococcus epidermidis, ATCC 27626 / MRSE, Example 2, values separated by / are repeat tests, read-out: Antimicrobial potency (MIC) MRSE
[11] = Escherichia coli, Example 2, values separated by / are repeat tests, read-out: Antimicrobial potency (MIC) E. coli
[12] = Staphylococcus aureus, Example 2, values separated by / are repeat tests, read-out: Antimicrobial potency (MIC) S. aureus
[13] = Homo sapiens, Erythrocyte, Example 2, highest concentration tested 1000 μg/ml, * low solubility in the test media, read-out: Toxicity RBC (EC50)
[14] = Staphylococcus aureus, ATCC 33591 / MRSA, Example 2, values separated by / are repeat tests, read-out: Antimicrobial potency (MIC) MRSA
[15] = Staphylococcus epidermidis, ATCC 27626 / MRSE, Example 4, ATCC 27626, di-trifluoroacetate salts, highest concentration tested 200 μg/ml, read-out: MIC MRSE
[16] = Staphylococcus aureus, ATCC33591, Example 4, ATCC 33591, di-trifluoroacetate salts, highest concentration tested 200 μg/ml, read-out: MIC MTRSA
[17] = Escherichia coli, ATCC25922, Example 4, ATCC 25922, di-trifluoroacetate salts, highest concentration tested 200 μg/ml, read-out: MIC E. coli
[18] = Pseudomonas aeruginosa, ATCC27853, Example 4, ATCC 27853, di-trifluoroacetate salts, highest concentration tested 200 μg/ml
[19] = Staphylococcus aureus, ATCC25923, Example 4, ATCC 25923, di-trifluoroacetate salts, highest concentration tested 200 μg/ml, read-out: MIC S. aureus
[20] = Erythrocyte, Example 4, hemolytic activity, human red blood cells, highest concentration tested 1000 μg/ml, read-out: EC50 RBC

Compound: NCCNC(=O)C(CN)(CCC1CCCCC1)CCC1CCCCC1 [Compound 3, N-(2-aminoethyl)-2-(aminomethyl)-4-cyclohexyl-2-(2-cyclohexylethyl)butanamide]
- Antimicrobial potency (MIC) MRSE [1, 9]: 5 µg/mL
- MIC [1, 10]: 2.5 µg/mL
- IC50 [2]: < 10 µg/mL
- MIC [3, 11]: 15 µg/mL
- Antimicrobial potency (MIC) E. coli [3, 9]: 10 µg/mL
- Anticancer potency (IC50) A20 [4]: 1.7 µg/mL
- IC50 [4]: < 3.35 µg/mL
- Anti-Cancer Selectivity MRC-5/A20 [4]: (<5.9)
- Anti-Cancer Selectivity RBC/A20 [4]: 36.5
- Antimicrobial potency (MIC) S. aureus [5, 9]: 10 µg/mL
- MIC [5, 12]: 7.5 µg/mL
- EC50 [6, 13]: 62 µg/mL

Compound: NCCNC(=O)C(CN)(Cc1ccccc1)Cc1ccccc1 [Compound 4]
- MIC [1, 10]: > 200 µg/mL
- MIC [7, 14]: > 200 µg/mL
- IC50 [2]: 261 µg/mL (≈ 838 µM)
- MIC [3, 11]: > 200 µg/mL
- IC50 [4]: 68.6 µg/mL (≈ 220 µM)
- Anti-Cancer Selectivity MRC-5/A20 [4]: 3.8
- MIC [5, 12]: > 200 µg/mL
- EC50 [6, 13]: > 1000 µg/mL

Compound: CN(C)CCN1CCN(C(=O)C(CN)(Cc2ccc(C(C)(C)C)cc2)Cc2ccc(C(C)(C)C)cc2)CC1 [Compound 4d]
- MBC MRSE ([1]; ATCC 27626): >307 µM
- Therapeutic index MRSE ([1]; ATCC 27626): 26
- MIC ([1]; ATCC 27626, read-out: MIC MRSE): 13 µM
- MIC MRSE ([1]; Example 1, ATCC 27626, di TFA salts, highest concentration tested 200 μg/ml): — (The notation “—”denotes no detectable activity (MIC or EC50) within the concentration range tested.)
- MBC MRSA ([7]; ATCC 33591): >307 µM
- Therapeutic index MRSA ([7]; ATCC 33591): 26
- MIC ([7]; ATCC 33591, read-out: MIC MTRSA): 13 µM
- MIC MRSA ([7]; Example 1, ATCC 33591, di TFA salts, highest concentration tested 200 μg/ml): — (The notation “—”denotes no detectable activity (MIC or EC50) within the concentration range tested.)
- MBC E. coli ([3]; ATTC 25922): >307 µM
- Therapeutic index E. coli ([3]; ATTC 25922): 26
- MIC ([3]; ATTC 25922, read-out: MIC E. coli): 13 µM
- MIC E. coli ([3]; Example 1, ATTC 25922, di TFA salts, highest concentration tested 200 μg/ml): — (The notation “—”denotes no detectable activity (MIC or EC50) within the concentration range tested.)
- Therapeutic index P. aeruginosa ([8]; ATCC 27853): 1.3
- MIC ([8]; ATCC 27853): 255 µM (≈ 133 µg/mL)
- MBC S. aureus ([5]; ATTC 25923): >307 µM
- Therapeutic index S. aureus ([5]; ATTC 25923): 26
- MIC ([5]; ATTC 25923, read-out: MIC S. aureus): 13 µM
- MIC S. aureus ([5]; Example 1, ATTC 25923, di TFA salts, highest concentration tested 200 μg/ml): — (The notation “—”denotes no detectable activity (MIC or EC50) within the concentration range tested.)
- EC50 ([6]; red cells of human): 337 µM

Compound: NCCNC(=O)C(CN)(CCCc1ccccc1)CCCc1ccccc1 [Compound 6, N-(2-aminoethyl)-2-(aminomethyl)-5-phenyl-2-(3-phenylpropyl)pentanamide]
- MIC [1, 10]: 15 µg/mL
- MIC [7, 14]: 35 µg/mL
- IC50 [2]: 35 µg/mL (≈ 95.2 µM)
- MIC [3, 11]: 200 µg/mL
- IC50 [4]: 8.3 µg/mL (≈ 22.6 µM)
- Anti-Cancer Selectivity MRC-5/A20 [4]: 4.2
- Anti-Cancer Selectivity RBC/A20 [4]: 98.8
- Antimicrobial potency (MIC) S. aureus [5, 9]: 50 µg/mL
- MIC [5, 12]: 35 µg/mL
- EC50 [6, 13]: 820 µg/mL

Compound: NCCNC(=O)C(CN)(Cc1ccc(C(F)(F)F)cc1)Cc1ccc(C(F)(F)F)cc1 [Compound 9, 3-amino-N-(2-aminoethyl)-2,2-bis(4-(trifluoromethyl)benzyl)propanamide]
- MIC [1, 10]: 10 µg/mL
- MIC [7, 14]: 5 µg/mL
- Toxicity MRC-5 ([2]; Example 2): 12 µg/mL
- IC50 [2]: < 10 µg/mL
- MIC [3, 11]: 35 µg/mL
- Anti-Cancer Selectivity MRC-5/A20 [4]: 10-12
- Anti-Cancer Selectivity RBC/A20 [4]: 287
- MIC [5, 12]: 10 µg/mL
- EC50 [6, 13]: 287 µg/mL

Compound: CC(C)c1ccc(CC(CN)(Cc2ccc(C(C)C)cc2)C(=O)NCCN)cc1 [Compound 10, 3-amino-N-(2-aminoethyl)-2,2-bis(4-isopropylbenzyl)propanamide]
- MIC [1, 10]: 5 µg/mL
- Antimicrobial potency (MIC) MRSA [7, 9]: 10 µg/mL
- MIC [7, 14]: 5 µg/mL
- IC50 [2]: < 6.67 µg/mL
- Anti-Cancer Selectivity MRC-5/A20 [4]: (<4.8)
- Anti-Cancer Selectivity RBC/A20 [4]: 33.6
- Antimicrobial potency (MIC) S. aureus [5, 9]: 10 µg/mL
- MIC [5, 12]: 5 µg/mL
- EC50 [6, 13]: 47 µg/mL

Compound: CC(C)(C)c1ccc(CC(CN)(Cc2ccc(C(C)(C)C)cc2)C(=O)NCCN)cc1 [Compound 11, 3-amino-N-(2-aminoethyl)-2,2-bis(4-tert-butylbenzyl)propanamide]
- MIC [1, 10]: 2.5 µg/mL
- MIC [7, 14]: 2.5 µg/mL
- IC50 [2]: 4 µg/mL (≈ 9.44 µM)
- MIC [3, 11]: 5 µg/mL
- Anti-Cancer Selectivity MRC-5/A20 [4]: 3.6
- Anti-Cancer Selectivity RBC/A20 [4]: 10.9
- MIC [5, 12]: 2.5 µg/mL
- EC50 [6, 13]: 12 µg/mL

Compound: Cc1cc(C)cc(CC(CN)(Cc2cc(C)cc(C)c2)C(=O)NCCN)c1 [Compound 12, 3-amino-N-(2-aminoethyl)-2,2-bis(3,5-dimethylbenzyl)propanamide]
- Antimicrobial potency (MIC) MRSE [1, 9]: 10 µg/mL
- MIC [1, 10]: 5 µg/mL
- MIC [7, 14]: 35 µg/mL
- IC50 [2]: 10 µg/mL (≈ 27.2 µM)
- MIC [3, 11]: 50 µg/mL
- Antimicrobial potency (MIC) E. coli [3, 9]: 100 µg/mL
- Anticancer potency (IC50) A20 [4]: < 10 µg/mL
- IC50 [4]: < 5 µg/mL
- Anti-Cancer Selectivity MRC-5/A20 [4]: (>2 )
- MIC [5, 12]: 35 µg/mL

Compound: CN1CCN(C(=O)C(CN)(Cc2ccc(C(C)(C)C)cc2)Cc2ccc(C(C)(C)C)cc2)CC1 [Entry 5d]
- Therapeutic index MRSE ([1]; EC50 RBC divided by MIC): 48
- MIC [1, 15]: 7.2 µM
- Therapeutic index MRSA ([7]; EC50 RBC divided by MIC): 23
- MIC [7, 16]: 15 µM
- Therapeutic index E. coli ([3]; EC50 RBC divided by MIC): 23
- MIC [3, 17]: 15 µM
- Therapeutic index P. aeruginosa ([8]; EC50 RBC divided by MIC): 1.2
- MIC [8, 18]: 289 µM
- Therapeutic index S. aureus ([5]; EC50 RBC divided by MIC): 23
- MIC [5, 19]: 15 µM
- EC50 [6, 20]: 348 µM

Compound: CN(C)CCNC(=O)C(CN)(Cc1ccc(C(C)(C)C)cc1)Cc1ccc(C(C)(C)C)cc1 [Entry 6d]
- Therapeutic index MRSE ([1]; EC50 RBC divided by MIC): 74
- MIC [1, 15]: 3.7 µM
- Therapeutic index MRSA ([7]; EC50 RBC divided by MIC): 37
- MIC [7, 16]: 7.4 µM
- Therapeutic index E. coli ([3]; EC50 RBC divided by MIC): 37
- MIC [3, 17]: 7.4 µM
- Therapeutic index P. aeruginosa ([8]; EC50 RBC divided by MIC): 3.7
- MIC [8, 18]: 74 µM
- Therapeutic index S. aureus ([5]; EC50 RBC divided by MIC): 37
- MIC [5, 19]: 7.4 µM
- EC50 [6, 20]: 274 µM

Compound: CC(C)(C)c1ccc(CC(CN)(Cc2ccc(C(C)(C)C)cc2)C(=O)NCCN)cc1 [Entry 7d]
- Therapeutic index MRSE ([1]; EC50 RBC divided by MIC): 4.7
- MIC [1, 15]: 3.8 µM
- Therapeutic index MRSA ([7]; EC50 RBC divided by MIC): 4.7
- MIC [7, 16]: 3.8 µM
- Therapeutic index E. coli ([3]; EC50 RBC divided by MIC): 2.3
- MIC [3, 17]: 7.7 µM
- Therapeutic index P. aeruginosa ([8]; EC50 RBC divided by MIC): 0.8
- MIC [8, 18]: 23 µM
- Therapeutic index S. aureus ([5]; EC50 RBC divided by MIC): 4.7
- MIC [5, 19]: 3.8 µM
- EC50 [6, 20]: 18 µM
